Source: article PMC6149869 (OncoTargets and therapy, 2018)

What was measured:
[1] = Clearance of sorafenib in cultured MHCC97-H cells; format: in vitro ADME; settings: human, Half-life (t1/2 value) of Sor, 1 µmol/L sorafenib
[2] = tested on: MHCC97-H cells; experiment: Subcutaneous HCC tumor growth model; format: in vivo, nude mice; settings: sorafenib 2 mg/kg oral; Figure 3
[3] = tested on: MHCC97-H cells; experiment: Intrahepatic HCC tumor growth model; format: in vivo, nude mice; settings: sorafenib 2 mg/kg oral; Figure 4
[4] = tested on: MDR-1; experiment: qPCR expression of PXR downstream gene MDR-1 in MHCC97-H cells; settings: human

| Structure (SMILES) | half-life at 1 µmol/L ([1]; miR-140-3p) | half-life at 1 µmol/L ([1]; miR-140-3p + inhibitor) | Effect on subcutaneous growth of HCC cells in nude mice [2] | Effect on intrahepatic growth of MHCC97-H cells in livers of nude mice [3] | EC50 at 24 h [4] |
| --- | --- | --- | --- | --- | --- |
| CNC(=O)c1cc(Oc2ccc(NC(=O)Nc3ccc(Cl)c(C(F)(F)F)c3)cc2)ccn1 [Sor, sorafenib] | 21.6 ± 5.3 h | 14.7 ± 5.87 h | significantly inhibit the subcutaneous growth of HCC cells | significantly inhibit the intrahepatic growth of MHCC97-H cells | – |
| CO[C@H]1/C=C/O[C@@]2(C)Oc3c(C)c(O)c4c(O)c(c(/C=N/N5CCN(C)CC5)c(O)c4c3C2=O)NC(=O)/C(C)=C\C=C\[C@H](C)[C@H](O)[C@@H](C)[C@@H](O)[C@@H](C)[C@H](OC(C)=O)[C@@H]1C [rifampicin, Rifampicin] | – | – | – | – | 1810 ± 290 nM |
